# Experimental data taken from patent publication US20050059744A1, “Methods and compositions for the treatment of pain and other alpha 2 adrenergic-mediated conditions” (Allergan, Inc., priority 2003, published 2005).
# Read-outs that look alike come from different tables or passages of the source.
# Legend:
# [1] = tested on: intraocular pressure of rabbit eyes; assay: Normotensive intraocular pressure in rabbit eyes after topical instillation (pneumatonometer); type: in vivo, New Zealand rabbits
# Experimental: Male New Zealand rabbits are used to evaluate drug effects on normotensive IOP measurements. The rabbits are carefully handled so as to minimize excitement. They should be picked up by the nape of the neck, with their hindlegs supported by the other hand. After removing the rabbit from its cage, approximately 25 ul of dilute Ophthetic® (0.05%) topical anesthesia is administered to each eye. An initial IOP determination is made in both eyes. Rabbits with 3 mmHg or greater difference in IOP between right and left eyes are replaced at this time.
# Immediately following the time zero (T=0) reading in both eyes, one eye of each experimental rabbit is instilled with an ophthalmic formulation of 0.1% (w/w) brimonidine tartrate onto the cornea of the randomly selected test eye. […] The other eye is given the vehicle containing no drug. The ophthalmic formulations comprise 50 ppm Purite® (stabilized chlorine dioxide), 0.5% carboxymethylcellulose, 0.6% (w/w) borate buffer (pH 7.7) and small amounts of salts (NaCl, KCl, CaCl2, MgCl2). Intraocular pressure of both treated (ipsalateral)and untreated (contralateral) eyes is measured at the indicated time intervals for seven hours. Pressure readings utilize a Model 30 Classic™ Pneumatonometer as the measuring and recording instrument. It measures intraocular pressure (IOP) non-invasively through applanation tonometry.
# [2] = tested on: sulprostone-induced allodynia in mice; assay: Sulprostone-induced allodynia mouse model, paint brush pain score; type: in vivo
# Experimental: Alternatively, allodynia can be induced in mice through intrathecal treatment of the animals with 200 ng sulprostone (prostaglandin E2 receptor agonist) in 50% DMSO and in a volume of 5 μl. In this model, the pain response to stroking the flank with a paint brush is scored 8 times over a 35 minute period starting 15 minutes following spinal administration of sulprostone. Minami et al., 57 Pain 217-223 (1994).
# The compounds are formulated in approximately 0.01-5% DMSO and given in a volume of 1 ml/kg body weight for systemic dosing or 5 μl in saline for intrathecal dosing. Clonidine is tested at intrathecal doses ranging between 0.01 and 10.0 μg.
# Amitriptylene is dissolved in 50% DMSO at the indicated doses and injected in a volume of 5 ul intrathecally into each mouse, in conjunction with either a 30 ug/kg IP injection of 5-methylurapadil or with a similar injection of saline.
# Experimental procedure is the same as in Example 1, except both clonidine (various doses) and 5-methylurapidil (1 microgram intrathecal) are coadministered by intrathecal injection in a 50% DMSO vehicle and in a total volume of 5 microliters.
# [3] = tested on: Chung model of allodynic rats
# From the text: A model for chronic pain (in particular peripheral neuropathy) involves the surgical ligation of the L5 (and optionally the L6) spinal nerves on one side in experimental animals. Rats recovering from the surgery gain weight and display a level of general activity similar to that of normal rats. However, these rats develop abnormalities of the foot, wherein the hindpaw is moderately everted and the toes are held together. More importantly, the hindpaw on the side affected by the surgery appears to become sensitive to pain from low-threshold mechanical stimuli, such as that producing a faint sensation of touch in a human, within about 1 week following surgery. This sensitivity to normally non-painful touch is called “tactile allodynia” and lasts for at least two months. The response includes lifting the affected hindpaw to escape from the stimulus, licking the paw and holding it in the air for many seconds. None of these responses is normally seen in the control group.
# Rats are anesthetized before surgery. The surgical site is shaved and prepared either with betadine or novacaine. Incision is made from the thoracic vertebra X111 down toward the sacrum. Muscle tissue is separated from the spinal vertebra (left side) at the L4-S2 levels. The L6 vertebra is located and the transverse process is carefully removed with a small rongeur to expose the L4-L6 spinal nerves. The L5 and L6 spinal nerves are isolated and tightly ligated with 6-0 silk thread. The same procedure is done on the right side as a control, except no ligation of the spinal nerves is performed.
# A complete hemostasis is confirmed, then the wounds are sutured. A small amount of antibiotic ointment is applied to the incised area, and the rat is transferred to the recovery plastic cage under a regulated heat-temperature lamp. […]
# In the Chung rat model, tactile allodynia is measured prior to and 30 minutes after drug administration using von Frey hairs that are a series of fine hairs with incremental differences in stiffness. […]
# male Sprague-Dawley rats = conditions: graded 30 minutes after administration
# Experimental: (§1) To test sedation, six male Sprague-Dawley rats are given various doses of a clonidine intrathecal injection. Sedation is graded 30 minutes following administration of the drug by monitoring locomotor skills as follows. Rats are placed in a dark covered chamber and a digicom analyzer (Omnitech Electronic) quantitates their exploratory behavior for a five-minute period. The machine records each time the rat interrupts an array of 32 photoelectric beams in the X and Y orientation, and quantifies the difference in behavior as compared to control animals given saline instead of clonidine.
# sedation = assay: Clonidine sedative activity dose response with or without 5-methylurapadil (FIG. 2); conditions: co-administration of 5-methyl urapidil 30 μg/kg intraperitoneal vs clonidine alone
# Experimental: as §1
# [4] = 35 microliters 0.003% prazosin instilled, FIG. 4A
# [5] = 0.1% brimonidine and 0.003% prazosin, FIG. 4D
structure (smiles),measurement,setting,value
COc1cc2nc(N3CCN(C(=O)c4ccco4)CC3)nc(N)c2cc1OC [prazosin],intraocular pressure compared to the untreated eye,[1]; [4],small initial drop
same,return to baseline pressure,[1]; [4],2 h
Brc1c(NC2=NCCN2)ccc2nccnc12 [brimonidine],lowering of intraocular pressure,"[1]; 0.1% brimonidine alone, after the first 30 minutes, FIG. 4B",~30%
same,initial change in intraocular pressure,"[1]; 0.1% brimonidine alone, within the first 30 minutes, FIG. 4B",pronounced increase
same,initial change in intraocular pressure,[1]; [5],only a very small increase
same,peak IOP lowering,[1]; [5],approximately 40%
same,difference in intraocular pressure response vs brimonidine alone,"[1]; co-installation of 0.1% brimonidine and 0.001% prazosin, FIG. 4C",Little difference
"CN(C)CCC=C1c2ccccc2CCc2ccccc21 [Amitriptylene, amitriptylene]",reduction in the dosage necessary to achieve maximal analgesia,[2]; amitriptylene intrathecal with 30 ug/kg IP 5-methylurapadil vs with saline,approximately three
Clc1cccc(Cl)c1N=C1NCCN1 [clonidine],analgesia,"[3]; intrathecal dose of 0.1 μg, allodynic rats",no analgesia
same,analgesia,"[3]; intrathecal dose of 1.0 μg, allodynic rats",maximal analgesia
same,analgesia,"[3]; rats, dose-dependence statement",analgesic
same,sedation,male Sprague-Dawley rats; intrathecal dose of 3.0 μg,mildly sedating
same,sedation,male Sprague-Dawley rats; intrathecal dose of 10 μg,maximal sedation
same,shift of the effective analgesic dose lower vs clonidine alone,[2]; 5-methyl urapidil 30 μg/kg intraperitoneal 5 minutes before clonidine,10 fold
same,analgesia,[2]; clonidine 0.1 microgram intrathecal in the absence of prazosin,not analgesic
same,analgesic results compared with intraperitoneal injection of the alpha 1 antagonist,[2]; clonidine (various doses) and 5-methylurapidil 1 microgram coadministered intrathecally,substantially similar
same,decrease in the EC50 for clonidine vs i.t. clonidine alone,[2]; coadministration of prazosin 100 ng/kg intraperitoneal,four
same,analgesia,"[2]; mice, dose-dependence statement",analgesic
same,sedating dose,sedation,unchanged
